PubChem BioAssay (NCI)
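Five compound concentrations were applied to cells in 96-well plates for 48 hours; endpoints were derived by simple linear interpolation of the resulting dose-response curve. GI50 is the concentration that inhibits growth by half. TGI: total growth inhibition.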

Experiments:
Test in all cases: DTP human tumour cell line panel, 48 h
UO-31 renal = test system: UO-31 renal
SK-MEL-28 melanoma = test system: SK-MEL-28 melanoma
T-47D breast = test system: T-47D breast
A498 renal = test system: A498 renal
NCI-H460 lung = test system: NCI-H460 lung
HCT-15 colon = test system: HCT-15 colon
PC-3 prostate = test system: PC-3 prostate
SNB-75 CNS = test system: SNB-75 CNS
SF-539 CNS = test system: SF-539 CNS
SF-295 CNS = test system: SF-295 CNS
SK-OV-3 ovarian = test system: SK-OV-3 ovarian
NCI/ADR-RES ovarian = test system: NCI/ADR-RES ovarian
MDA-MB-435 = test system: MDA-MB-435
RXF 393 renal = test system: RXF 393 renal
UACC-257 melanoma = test system: UACC-257 melanoma
SN12C renal = test system: SN12C renal
KM12 colon = test system: KM12 colon
NCI-H23 lung = test system: NCI-H23 lung
LOX IMVI melanoma = test system: LOX IMVI melanoma
HL-60(TB) leukemia = test system: HL-60(TB) leukemia
OVCAR-4 ovarian = test system: OVCAR-4 ovarian
MOLT-4 leukemia = test system: MOLT-4 leukemia
CAKI-1 renal = test system: CAKI-1 renal
SK-MEL-2 melanoma = test system: SK-MEL-2 melanoma
HS 578T breast = test system: HS 578T breast
TK-10 renal = test system: TK-10 renal
NCI-H522 lung = test system: NCI-H522 lung
CCRF-CEM leukemia = test system: CCRF-CEM leukemia
SK-MEL-5 melanoma = test system: SK-MEL-5 melanoma

## NC(=S)N/N=C\c1nccc2c(C(F)(F)C(F)(F)C(F)(F)F)cccc12
UO-31 renal
  TGI: 892 nM
SK-MEL-28 melanoma
  GI50: 250 nM
  TGI: 3260 nM
T-47D breast
  GI50: 36.9 nM
  TGI: 1510 nM
A498 renal
  GI50: 464 nM
  TGI: 2100 nM
NCI-H460 lung
  GI50: 61.9 nM
  TGI: 1210 nM
HCT-15 colon
  GI50: 48.8 nM
  TGI: > 100000 nM
PC-3 prostate
  GI50: 66.1 nM
  TGI: > 22500 nM
SNB-75 CNS
  GI50: 124 nM
  TGI: 2870 nM
SF-539 CNS
  GI50: 193 nM
  TGI: 772 nM
SF-295 CNS
  GI50: 209 nM
  TGI: 1700 nM
SK-OV-3 ovarian
  GI50: 46.6 nM
  TGI: 1430 nM
NCI/ADR-RES ovarian
  GI50: 167 nM
  TGI: 1650 nM
MDA-MB-435
  GI50: 376 nM
  TGI: > 31600 nM
RXF 393 renal
  GI50: 113 nM
  TGI: 1260 nM
UACC-257 melanoma
  GI50: 120 nM
  TGI: 575 nM
SN12C renal
  GI50: 116 nM
  TGI: 2310 nM
KM12 colon
  GI50: 82.5 nM
  TGI: 8050 nM
NCI-H23 lung
  GI50: 422 nM
  TGI: 12400 nM
LOX IMVI melanoma
  GI50: 72.5 nM
  TGI: 1340 nM
HL-60(TB) leukemia
  GI50: 64.9 nM
  TGI: 665 nM
OVCAR-4 ovarian
  GI50: 32.9 nM
  TGI: 1490 nM
MOLT-4 leukemia
  GI50: 54 nM
  TGI: 8800 nM
CAKI-1 renal
  GI50: 183 nM
  TGI: 1590 nM
SK-MEL-2 melanoma
  GI50: 388 nM
  TGI: 3230 nM
HS 578T breast
  GI50: 889 nM
  TGI: 22600 nM
TK-10 renal
  GI50: 78 nM
  TGI: 2300 nM
NCI-H522 lung
  GI50: 211 nM
  TGI: 756 nM
CCRF-CEM leukemia
  GI50: 42.7 nM
  TGI: > 100000 nM
SK-MEL-5 melanoma
  GI50: 99.6 nM
  TGI: 563 nM
